This note sets out measurements from patent US20250188032A1, “NITROGEN-CONTAINING HETEROCYCLIC COMPOUNDS AND USES THEREOF” (BNH RESEARCH CO., LTD., priority 2022, published 2025).

For one assay, the target named is HDAC5 (Homo sapiens, UniProt Q9UQL6). Briefly: HDAC catalytic activity, fluorogenic substrate. The class given is biochemical. Particulars: 10-dose, 3-fold serial dilution starting at 100 μM, duplicates. The method, then: (§1) The compound (racemate) was resuspended in 100 mM DMSO and tested in a 10-dose IC50 with 3-fold serial dilution starting at 100 μM against HDACs 1-9, and 11. As reference compounds, Trichostatin A (TSA) and TMP269 were tested in a 10-dose IC50 with 3-fold serial dilution starting at 10 μM or 1 μM.
(§2) 10 μM Fluorogenic peptide from p53 residues 379-382 (RHKK(Ac)AMC) was used for the substrate for HDAC 1, 2, 3, and 6, 50 μM Fluorogenic HDAC Class2a Substrate (Trifluoroacetyl Lysine) was used for the substrate for HDAC 4, 5, 7, 9, and 11, 100 μM Fluorogenic peptide from p53 residues 379-382 (RHK(Ac)K(Ac)AMC) was used for the substrate for HDAC8.
(§3) IC50 values were calculated using the GraphPad Prism 4 program based on a sigmoidal dose-response equation and the blank (DMSO) value concentration was entered as 1.00E-12 M for curve fitting.

The target in another assay is HDAC4 (Homo sapiens, UniProt P56524). Briefly: HDAC catalytic activity, fluorogenic substrate. The class given is biochemical. As to conditions: 10-dose, 3-fold serial dilution starting at 100 μM, duplicates. The method, then:
as §1, §2, §3

For a further assay, the target named is HDAC3 (Homo sapiens, UniProt O15379). Briefly: HDAC catalytic activity, fluorogenic substrate. In kind it is biochemical. Particulars: 10-dose, 3-fold serial dilution starting at 100 μM, duplicates. The method, then: as §1, §2, §3
The subject of assay [1] is BDNF and GluN2B expression in SH-SY5Y cells. Briefly: Expression of BDNF and GluN2B in SH-SY5Y cells. The class given is cell-based, human. As to conditions: 1 μM, application for 6 and 24 hours. The method, then:
Human undifferentiated neuroblastoma cell line SH-SY5Y and human embryonic kidney cell line (HEK)-293T were purchased from Korean Cell Line Bank (Korea) and Takara (Japan), respectively. Cells were grown in HyClone Minimal Essential Medium (MEM) and Dulbecco's Modified Eagle Medium (DMEM), respectively, supplemented with 10% (v/v) fetal bovine serum (FBS), penicillin (100 U/mL), and streptomycin ([…]). Cells were maintained in a humidified atmosphere of 95% air and 5% CO2 at 37° C. Cells were passaged 10 times at maximum. Cells were dissociated using 0.05% trypsin-EDTA solution and the cells were seeded in new culture dishes for maintenance.

The subject of assay [2] is HDAC4, BDNF and GluN2B expression in C57BL/6J mice cortex. Briefly: Western blotting of HDAC4, BDNF and GluN2B in mouse cortical tissue after administration. In kind it is in vivo. As for the experimental part: For preparation of thalamocortical (TC) slices, 9- to 10-week-old male C57BL/6J rodents (mice) were anesthetized with isoflurane. Then, the brains were rapidly cooled by transcardial perfusion with ice-cold sucrose-artificial cerebrospinal fluid (aCSF). The brains were removed and placed in ice-cold sucrose aCSF. Paracoronal slices were prepared at a 50° angle to the midline on a ramp at an angle of 10°. The slices were then incubated in aCSF for 30 minutes at 35° C. to recover.
Subsequently, the slices were incubated in aCSF for 1 to 4 hours at room temperature (23 to 25° C.) before being placed in the recording chamber for experiment. Standard aCSF contains saturated with 95% O2/5% CO2.
All electrophysiological experiments were conducted at 27 to 29° C. Rodent (mice) was perfused with […] a sucrose-based aCSF solution (4° C.) using gravity. The brain of the rodent (mice) was removed and cut into 400 urn at a 50° angle (mouse at a 55° angle) to attach the cut portion to the vibratome disc to be the bottom. Brain slice was incubated in Incubate aCSF solution at 35° C. for 30 minutes or Incubate aCSF solution at RT for 1 hour. Cortical tissue from mice was prepared according to protocol above then was homogenized and lysed for protein extraction. The protein lysate was prepared from the tissue with NP40(FNN0021, Invitrogen) protein lysis buffer containing protease & […] according to the manufacturer's instruction. Protein concentrations were determined using the BCA Protein Assay Kit (Pierce Biotechnology) with bovine serum albumin as a standard. Equal amounts of proteins (20 μg per lane) were separated by electrophoresis on 8% or 12% SDS-polyacrylamide gel, followed by blotting onto PVDF membranes (GE Healthcare). To block nonspecific binding, the membranes were incubated for 1 h at room temperature in 5% non-fat dry milk in PBST (150 mM NaCl, 50 mM Tris, pH 7.4, 0.05% Tween 20). The following antibodies were incubated overnight at 4° C. in 2% blocking solution: Anti-HDAC4 (SAB4300413, Sigma-Aldrich), Anti-BDNF (ANT-010, Alomone Las), Anti-NMDAR2B (ab65783, abcam plc). Following the incubation with antibodies and several rinses in PBST, the membranes were incubated for 1 h with the mouse anti-rabbit IgG-HRP conjugated secondary anti-bodies (sc-2357, Santa Cruz). Each blot was subsequently re-probed with anti-β-actin antibody (sc-47778, Santa Cruz). Housekeeping protein β actin was detected as a normalization control. Antibodies used for methods described herein are as follows: […]

The test system of assay [3] is HDAC4, BDNF and GluN2B expression in primary cultured cortical neurons. Briefly: Expression of HDAC4, BDNF and GluN2B in primary cultured cortical neurons. The class given is cell-based, mouse. The method, then: Meanwhile, primary cortical neuron cells were isolated from cerebral cortices of 18-day-old mouse fetuses, incubated in prep media (composition (mM). NaCl 107.5. NaH2PO4 1, NaHCO333.5, glucose 11, HEPS 1%, penicillin-streptomycin 1%) containing 0.25% trypsin and DNase1 for 30 minutes, dissociated into single cells, and seeded. Primary cortical neuron cells were grown in Neurobasal medium supplemented with 1% (v/v) B27, 1% penicillin (100 U/mL), streptomycin ([…]), and 1% Glutamax. Cells were maintained in a humidified atmosphere of 95% air and 5% CO2 at 37° C. Drug efficacy was evaluated after culturing primary cortical neuron cells for 14 days.
The amount of GluN2B reacted with the compound of the present disclosure was measured using Western blot. The fetal cerebral cortex was extracted from mice at 17 days of gestation, dissociated into single cells, cultured for 13 days, and treated with BnH drugs for 24 hours. The drug-treated cells were subjected to protein lysate preparation using RIPA protein lysis buffer containing protease and phosphatase inhibitors. The protein concentration was determined using a BCA protein assay kit (Pierce Biotechnology) using bovine serum albumin as a standard. Equal amounts of protein (20 μg per lane) were separated by electrophoresis on SDS-polyacrylamide gels at 90 V for 2 hours, then transferred from the SDS-polyacrylamide gel to PVDF membrane at 100 V for 1 hour. Then, primary reaction with GluN2B antibody (ab65783, Abcam) was performed at 4° C. for 1 day, washed three times at 10-minutes intervals with 1×PBT, and secondary reaction was performed with anti-mouse antibody (sc-2357, Santa Cruz) for 1 hour, followed by washing three times at 10-minutes intervals with 1×PBT. Western blotting was performed as described above to confirm GluN2B protein expression. Subsequently, each blot was re-probed using anti-β-actin antibody (sc-47778, Santa Cruz). Housekeeping protein β-actin was detected as a normalization control.

Setting [4] is: primary cultured cortical neurons.
[5] abbreviates: oral, 1 mg/kg, 8-week-old C57BL/6J mice, sacrificed 2 days later, vs vehicle.
The mark [6] stands for this setting: 1 μM, 24-hour treatment, cultured primary cortical neurons (DIV 14).

Sequence of HDAC3 (O15379 whole entry): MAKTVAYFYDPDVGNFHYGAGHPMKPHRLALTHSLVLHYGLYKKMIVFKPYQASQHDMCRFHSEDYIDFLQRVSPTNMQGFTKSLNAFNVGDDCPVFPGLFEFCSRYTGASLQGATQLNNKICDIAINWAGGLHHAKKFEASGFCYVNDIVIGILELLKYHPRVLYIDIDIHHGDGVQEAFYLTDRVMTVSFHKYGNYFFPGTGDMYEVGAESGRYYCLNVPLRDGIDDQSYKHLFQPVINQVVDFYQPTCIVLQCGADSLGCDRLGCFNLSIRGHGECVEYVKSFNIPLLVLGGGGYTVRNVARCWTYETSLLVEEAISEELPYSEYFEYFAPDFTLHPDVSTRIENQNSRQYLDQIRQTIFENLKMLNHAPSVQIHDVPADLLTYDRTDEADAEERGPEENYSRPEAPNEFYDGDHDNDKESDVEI
Sequence of HDAC3 (Q9Y618 395-489 partner limits assumed): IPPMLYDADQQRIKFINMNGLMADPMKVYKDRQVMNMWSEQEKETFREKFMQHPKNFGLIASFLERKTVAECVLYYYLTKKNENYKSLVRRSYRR
Sequence of HDAC4 (P56524 whole entry, species assumed): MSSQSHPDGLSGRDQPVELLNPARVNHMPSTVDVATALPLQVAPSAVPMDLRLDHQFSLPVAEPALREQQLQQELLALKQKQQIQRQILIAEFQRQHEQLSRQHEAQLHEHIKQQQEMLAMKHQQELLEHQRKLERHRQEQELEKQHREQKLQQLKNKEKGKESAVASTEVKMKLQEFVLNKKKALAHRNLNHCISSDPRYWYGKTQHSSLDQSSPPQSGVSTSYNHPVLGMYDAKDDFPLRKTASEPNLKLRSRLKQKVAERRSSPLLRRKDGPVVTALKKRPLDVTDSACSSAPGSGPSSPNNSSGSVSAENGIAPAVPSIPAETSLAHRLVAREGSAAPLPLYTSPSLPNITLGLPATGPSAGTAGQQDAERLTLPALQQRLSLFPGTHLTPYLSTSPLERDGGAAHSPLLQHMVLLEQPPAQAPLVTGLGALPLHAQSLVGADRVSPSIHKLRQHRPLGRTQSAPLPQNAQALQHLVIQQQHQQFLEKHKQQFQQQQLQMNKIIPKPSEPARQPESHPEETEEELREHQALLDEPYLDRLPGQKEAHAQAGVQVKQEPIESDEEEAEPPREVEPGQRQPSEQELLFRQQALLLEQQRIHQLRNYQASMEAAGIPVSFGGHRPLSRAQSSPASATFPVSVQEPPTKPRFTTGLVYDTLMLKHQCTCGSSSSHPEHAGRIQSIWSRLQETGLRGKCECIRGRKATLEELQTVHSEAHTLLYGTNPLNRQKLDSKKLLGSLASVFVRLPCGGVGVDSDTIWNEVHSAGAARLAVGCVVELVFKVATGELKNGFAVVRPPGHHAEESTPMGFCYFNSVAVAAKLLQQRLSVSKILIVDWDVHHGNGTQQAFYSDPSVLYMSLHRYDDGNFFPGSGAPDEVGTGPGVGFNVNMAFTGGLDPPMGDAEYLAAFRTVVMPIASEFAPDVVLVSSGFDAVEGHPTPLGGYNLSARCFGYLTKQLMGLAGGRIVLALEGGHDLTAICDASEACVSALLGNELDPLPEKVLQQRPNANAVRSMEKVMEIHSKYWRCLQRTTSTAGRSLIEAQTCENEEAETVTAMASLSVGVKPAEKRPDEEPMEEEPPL
Sequence of HDAC5 (Q9UQL6 whole entry, species assumed, the tested form may be a part): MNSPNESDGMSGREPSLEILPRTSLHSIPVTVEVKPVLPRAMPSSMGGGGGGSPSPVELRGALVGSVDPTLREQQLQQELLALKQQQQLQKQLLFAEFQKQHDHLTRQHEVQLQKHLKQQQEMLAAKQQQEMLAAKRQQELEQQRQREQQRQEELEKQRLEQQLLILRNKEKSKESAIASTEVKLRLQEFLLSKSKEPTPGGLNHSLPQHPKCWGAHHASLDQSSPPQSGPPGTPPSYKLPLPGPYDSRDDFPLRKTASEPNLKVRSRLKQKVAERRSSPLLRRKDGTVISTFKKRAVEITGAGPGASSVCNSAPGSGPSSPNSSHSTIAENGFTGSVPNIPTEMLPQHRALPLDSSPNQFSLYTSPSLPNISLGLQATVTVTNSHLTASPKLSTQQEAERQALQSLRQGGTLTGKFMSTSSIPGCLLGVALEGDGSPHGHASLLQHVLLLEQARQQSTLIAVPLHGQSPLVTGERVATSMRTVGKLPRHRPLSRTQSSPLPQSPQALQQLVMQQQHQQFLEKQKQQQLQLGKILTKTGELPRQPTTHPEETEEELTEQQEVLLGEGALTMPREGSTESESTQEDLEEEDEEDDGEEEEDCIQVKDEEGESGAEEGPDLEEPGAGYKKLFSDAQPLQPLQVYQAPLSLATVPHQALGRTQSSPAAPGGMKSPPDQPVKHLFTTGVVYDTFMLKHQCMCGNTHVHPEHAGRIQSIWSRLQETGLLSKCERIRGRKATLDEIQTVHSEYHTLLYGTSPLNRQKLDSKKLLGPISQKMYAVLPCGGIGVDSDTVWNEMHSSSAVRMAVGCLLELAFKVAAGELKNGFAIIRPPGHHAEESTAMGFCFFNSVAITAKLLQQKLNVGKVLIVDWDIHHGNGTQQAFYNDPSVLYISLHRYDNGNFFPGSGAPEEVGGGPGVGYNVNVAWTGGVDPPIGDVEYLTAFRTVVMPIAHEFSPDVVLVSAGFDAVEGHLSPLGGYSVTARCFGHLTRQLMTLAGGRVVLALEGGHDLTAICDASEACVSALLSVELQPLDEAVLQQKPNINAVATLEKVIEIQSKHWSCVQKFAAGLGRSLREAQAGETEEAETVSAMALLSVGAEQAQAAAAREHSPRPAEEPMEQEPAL

Turning to `CC1CCC(C(=O)O)CN1C(=O)Cc1ccc(F)cc1Cl` (racemic) [BnH12001, 1-(2-(2-chloro-4-fluorophenyl)acetyl)-6-methylpiperidine-3-carboxylic acid], at HDAC5, the “Inhibitory effect on HDAC5 catalytic activity” value was “did not show any inhibitory effect”. In addition, on HDAC4, the “Inhibitory effect on HDAC4 catalytic activity” value was “did not show any inhibitory effect”. Further, the “Inhibitory effect on HDAC3 catalytic activity” value on HDAC3 is given as “did not show any inhibitory effect”. For the same molecule, the BDNF expression entry in assay [1] was “augmented”; in assay [3] (setting [4]) it was “significantly increased”. In addition, the figures for the GluN2B expression entry in assay [1] and in assay [3] (setting [4]) were “augmented” and “significantly increased”, respectively. For the same molecule, the “HDAC4 protein expression in mice barrel cortex” value in assay [2] (intraperitoneal administration) and in assay [2] (oral administration) was “significantly suppressed” throughout. For the same molecule, the “Duration of inhibitory effect on HDAC4 protein expression” value in assay [2] (oral and intraperitoneal administration, mice barrel cortex) is recorded as ≥ 9 days. Moreover, the HDAC4 protein expression entry in assay [3] (setting [4]) is “significantly suppressed”.
`C[C@@H]1CC[C@H](C(=O)O)CN1C(=O)Cc1ccc(F)cc1Cl` [BnH12001 enantiomer (3S,6R, 98%<), (3S,6R)-1-(2-(2-chloro-4-fluorophenyl)acetyl)-6-methylpiperidine-3-carboxylic acid]: in assay [2] (setting [5]), the BDNF expression entry was “significantly increased”, the GluN2B expression entry is “significantly increased” and the HDAC4 expression entry is reported as “effectively degraded”. In addition, the GluN2B expression entry in assay [2] (oral, 1 mg/kg, 13-month-old C57BL/6J mice, sacrificed 2 days later, vs vehicle) is given as “significantly increased”. In assay [3] (setting [6]), the BDNF expression entry is recorded as “increased” and the GluN2B expression entry is on record as “increased”.
